Source: patent US8552022B2, “Substituted cyclopropyl compounds, compositions containing such compounds and methods of treatment” (Merck Sharp & Dohme Corp., priority 2009, dated 2013)

Target: T1, GPR119 (UniProt Q8TDV5, S309L, species not given)
T1 sequence (Q8TDV5 1-335 S309L): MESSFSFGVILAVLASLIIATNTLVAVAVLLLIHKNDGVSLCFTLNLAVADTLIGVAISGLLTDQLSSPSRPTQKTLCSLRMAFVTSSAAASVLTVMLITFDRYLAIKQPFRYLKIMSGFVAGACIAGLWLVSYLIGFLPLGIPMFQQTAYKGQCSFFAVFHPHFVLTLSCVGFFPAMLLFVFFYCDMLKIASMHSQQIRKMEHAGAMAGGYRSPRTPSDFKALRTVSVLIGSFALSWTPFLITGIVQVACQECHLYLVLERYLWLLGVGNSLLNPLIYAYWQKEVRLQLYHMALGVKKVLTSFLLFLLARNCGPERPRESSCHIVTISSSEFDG
Experiment: GPR119 signaling, cyclic AMP (cAMP) HTRF assay
Type: cell-based, human (S309L variant) or murine
Settings: CHO cells with Gα15 and murine GPR119 or HEK293 Flp-In cells with human GPR119 S309L, read-out: EC50 (agonist activation of GPR119, cAMP)
Source text: The title compound was synthesized using 2-{2-[1-(5-chloropyrimidin-2-yl)piperidin-4-yl]cyclopropyl}ethyl 4-methylbenzenesulfonate from step 1 of this example by a general procedure analogous that described in Example 59. LRMS calc: 424.9; obs: 425.01 (M+1). Measurement of GPR119Signaling Using a Cyclic AMP (cAMP) Homogenous Time Resolved Fluorescence (HTRF) Assay
Chinese hamster ovary (CHO) cell lines stably transfected with the permissive guanine nucleotide binding protein alpha 15 (Gα15) and murine GPR119 were maintained in DMEM media containing FBS, penicillin-streptomycin, puromycin, and G418 (geneticin). Alternatively, human embryonic kidney (HEK)293 Flp-In cells (Invitrogen, Carlsbad, Calif.) were stably transfected with a human SNP variant (S309L) of GPR119 and maintained in DMEM media containing FBS, penicillin-streptomycin, and hygromycin. Agonist activation of the GPR119 receptor was measured in receptor transfected cells described above, treated with compounds of this invention, using a commercial homogenous time resolved fluorescence (HTRF) kit for measurement of cAMP (CisBio, Bedford, Mass.). The assay was performed in 96-well half-volume plates (murine) or 384-well plates (human) following the manufacturers instructions. Briefly, suspended cells were incubated with a dose titration of test compound at room temperature for 60 min, lysed, and incubated with HTRF reagents for an additional 60 min. The plate was read using an Envision multilabel reader (Perkin Elmer) adjusted to read time resolved fluorescence and the cAMP concentrations were extrapolated from a cAMP calibration curve. […] The concentration of test compound required to stimulate a half-maximal response (EC50), and efficacy as compared to an internal agonist control, was determined from a sigmoidal 4-parameter curve fit of the resulting plot of normalized activity versus compound concentration.

| EC50 [nM] | SMILES |
| --- | --- |
| < 10 | Cc1nc(C#N)cc(NCC[C@@H]2C[C@@H]2C2CCN(c3ncc(Cl)cn3)CC2)n1 (racemic) [Ex 4, rac-cis-6-[(2-{2-[1-(5-chloropyrimidin-2-yl)piperidin-4-yl]cyclopropyl}ethyl)amino]-2-methylpyrimidine-4-carbonitrile] |
| < 10 | Cc1nc(C#N)cc(NCC[C@H]2C[C@@H]2C2CCN(c3ncc(Cl)cn3)CC2)n1 (relative stereo) [Ex 61, trans 6-[(2-{2-[1-(5-chloropyrimidin-2-yl)piperidin-4-yl]cyclopropyl}ethyl)amino]-2-methylpyrimidine-4-carbonitrile] |
| 50 to 200 | CS(=O)(=O)c1ccc(NCC[C@@H]2C[C@H]2C2CCN(c3ncc(Cl)cn3)CC2)cc1 (single isomer, unassigned) [Ex 58, trans-N-(2-{2-[1-(5-chloropyrimidin-2-yl)piperidin-4-yl]cyclopropyl}ethyl)-4-(methylsulfonyl)aniline] |
| 10 to 50 | Clc1cnc(N2CCC(C3CC3CCNc3ccc(-n4cncn4)nc3)CC2)nc1 (single isomer, unassigned) [Ex 59, trans-N-(2-{2-[1-(5-chloropyrimidin-2-yl)piperidin-4-yl]cyclopropyl}ethyl)-6-1H-1,2,4-triazol-1-yl)pyridin-3-amine] |
| 50 to 200 | CS(=O)(=O)c1ccc(NCC[C@@H]2C[C@H]2C2CCN(c3ncc(Cl)cn3)CC2)cc1 (single isomer, unassigned) [Ex 60, trans N-(2-{2-[1-(5-chloropyrimidin-2-yl)piperidin-4-yl]cyclopropyl}ethyl)-4-(methylsulfonyl)aniline] |
| 10 to 50 | Clc1cnc(N2CCC([C@@H]3C[C@H]3CCNc3ccc(-n4cncn4)nc3)CC2)nc1 (single isomer, unassigned) [Ex 62, trans N-(2-{2-[1-(5-chloropyrimidin-2-yl)piperidin-4-yl]cyclopropyl}ethyl)-6-(1H-1,2,4-triazol-1-yl)pyridin-3-amine] |
| 10 to 50 | Cc1nc(C#N)cc(NCC[C@@H]2C[C@@H]2C2CCN(c3ncc(Cl)cn3)CC2)n1 [Ex 5, 6-[(2-{(1S,2S)-2-[1-(5-chloropyrimidin-2-yl)piperidin-4-yl]cyclopropyl}ethyl)amino]-2-methylpyrimidine-4-carbonitrile] |
| 10 to 50 | CS(=O)(=O)c1ccc(NCC[C@@H]2C[C@@H]2C2CCN(c3ncc(Cl)cn3)CC2)nc1 [Ex 6, N-(2-{(1S,2S)-2-[1-(5-chloropyrimidin-2-yl)piperidin-4-yl]cyclopropyl}ethyl)-5-(methylsulfonyl)pyridin-2-amine] |
| < 10 | CS(=O)(=O)c1ccc(NCC[C@@H]2C[C@@H]2C2CCN(c3ncc(Cl)cn3)CC2)cc1 [Ex 7, N-(2-{(1S,2S)-2-[1-(5-chloropyrimidin-2-yl)piperidin-4-yl]cyclopropyl}ethyl)-4-(methylsulfonyl)aniline] |
| < 10 | Clc1cnc(N2CCC([C@H]3C[C@H]3CCNc3ccc(-n4ccnn4)cn3)CC2)nc1 [Ex 8, N-(2-{(1S,2S)-2-[1-(5-chloropyrimidin-2-yl)piperidin-4-yl]cyclopropyl}ethyl)-5-(1H-1,2,3-triazol-1-yl)pyridin-2-amine] |
| 50 to 200 | CN(CC[C@@H]1C[C@@H]1C1CCN(c2ncc(Cl)cn2)CC1)c1ccc(S(C)(=O)=O)cc1 [Ex 9, N-(2-{(1S,2S)-2-[1-(5-chloropyrimidin-2-yl)piperidin-4-yl]cyclopropyl}ethyl)-N-methyl-4-(methylsulfonyl)aniline] |
| < 10 | Clc1cnc(N2CCC([C@H]3C[C@H]3CCNc3ccc(-n4cnnn4)cc3)CC2)nc1 [Ex 10, N-(2-{(1S,2S)-2-[1-(5-chloropyrimidin-2-yl)piperidin-4-yl]cyclopropyl}ethyl)-4-(1H-tetrazol-1-yl)aniline] |
| < 10 | Clc1cnc(N2CCC([C@H]3C[C@H]3CCNc3ccc(-n4cncn4)cc3)CC2)nc1 [Ex 11, N-(2-{(1S,2S)-2-[1-(5-chloropyrimidin-2-yl)piperidin-4-yl]cyclopropyl}ethyl)-4-(1H-1,2,4-triazol-1-yl)aniline] |
| < 10 | Clc1cnc(N2CCC([C@H]3C[C@H]3CCNc3ccc(-c4ccn[nH]4)cc3)CC2)nc1 [Ex 12, N-(2-{(1S,2S)-2-[1-(5-chloropyrimidin-2-yl)piperidin-4-yl]cyclopropyl}ethyl)-4-(1H-pyrazol-5-yl)aniline] |
| 10 to 50 | Cn1cnnc1-c1ccc(NCC[C@@H]2C[C@@H]2C2CCN(c3ncc(Cl)cn3)CC2)cc1 [Ex 13, N-(2-{(1S,2S)-2-[1-(5-chloropyrimidin-2-yl)piperidin-4-yl]cyclopropyl}ethyl)-4-(4-methyl-4H-1,2,4-triazol-3-yl)aniline] |
| < 10 | Clc1cnc(N2CCC([C@H]3C[C@H]3CCNc3ccc(-n4cncn4)nc3)CC2)nc1 [Ex 14, N-(2-{(1S,2S)-2-[1-(5-chloropyrimidin-2-yl)piperidin-4-yl]cyclopropyl}ethyl)-6-(1H-1,2,4-triazol-1-yl)pyridin-3-amine] |
| < 10 | Clc1cnc(N2CCC([C@H]3C[C@H]3CCNc3ccc(-n4cnnn4)nc3)CC2)nc1 [Ex 15, N-(2-{(1S,2S)-2-[1-(5-chloropyrimidin-2-yl)piperidin-4-yl]cyclopropyl}ethyl)-6-(1H-tetrazol-1-yl)pyridin-3-amine] |
| 10 to 50 | Clc1cnc(N2CCC([C@H]3C[C@H]3CCNc3cnc(-n4cncn4)nc3)CC2)nc1 [Ex 16, N-(2-{(1S,2S)-2-[1-(5-chloropyrimidin-2-yl)piperidin-4-yl]cyclopropyl}ethyl)-2-(1H-1,2,4-triazol-1-yl)pyrimidin-5-amine] |
| < 10 | Cc1nnn(-c2ccc(NCC[C@@H]3C[C@@H]3C3CCN(c4ncc(Cl)cn4)CC3)cn2)n1 [Ex 17, N-(2-{(1S,2S)-2-[1-(5-chloropyrimidin-2-yl)piperidin-4-yl]cyclopropyl}ethyl)-6-(5-methyl-2H-tetrazol-2-yl)pyridin-3-amine] |
| 10 to 50 | Cc1nnnn1-c1ccc(NCC[C@@H]2C[C@@H]2C2CCN(c3ncc(Cl)cn3)CC2)cn1 [Ex 18, N-(2-{(1S,2S)-2-[1-(5-chloropyrimidin-2-yl)piperidin-4-yl]cyclopropyl}ethyl)-6-(5-methyl-1H-tetrazol-1-yl)pyridin-3-amine] |
| 10 to 50 | Clc1cnc(N2CCC([C@H]3C[C@H]3CCNc3ccc(-n4nccn4)nc3)CC2)nc1 [Ex 19, N-(2-{(1S,2S)-2-[1-(5-chloropyrimidin-2-yl)piperidin-4-yl]cyclopropyl}ethyl)-6-(2H-1,2,3-triazol-2-yl)pyridin-3-amine] |
| 10 to 50 | O=C1CCCN1c1ccc(NCC[C@@H]2C[C@@H]2C2CCN(c3ncc(Cl)cn3)CC2)cn1 [Ex 20, 1-{5-[(2-{(1S,2S)-2-[1-(5-chloropyrimidin-2-yl)piperidin-4-yl]cyclopropyl}ethyl)amino]pyridin-2-yl}pyrrolidin-2-one] |
| < 10 | Clc1cnc(N2CCC([C@H]3C[C@H]3CCNc3ccc(-n4ccnn4)cc3)CC2)nc1 [Ex 21, N-(2-{(1S,2S)-2-[1-(5-chloropyrimidin-2-yl)piperidin-4-yl]cyclopropyl}ethyl)-4-(1H-1,2,3-triazol-1-yl)aniline] |
